The values that follow come from patent publication US20050245399A1, “Pyrazole derivatives as herbicidal compositions containing them” (ISHIHARA SANGYO KAISHA, LTD., priority 2004, published 2005).

The test system of one test is corn (Zea mays L.): ZEAMX. Kind of test: Test Example 1 pre-emergence herbicidal activity, ZEAMX. To be noted: Rate 63 g a.i./ha, visually observed 20th to 23rd day after application. Type of test: in vivo. In a few lines:
(§1)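 Compound was delivered by small sprayer to sown upland soil one day after sowing, before emergence, at 500 L/ha spray volume. Plant growth was assessed visually around 3 weeks later (days 20–23), 100% denoting complete kill.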
For the molecule `COCCOC(=O)Nc1c(OC)c(Cl)cc(F)c1-c1nn(C)c(OC(F)F)c1Cl` [Compound 1-61], the “Pre-emergence Herbicidal Activity ZEAMX (growth controlling degree)” value came out at 30%.

The subject of another test is soybean (Glycine max Merr.), GLXMA. Kind of test: Test Example 2 post-emergence (foliage treatment) herbicidal activity, GLXMA. Type of test: in vivo. To be noted: 63 g a.i./ha. In a few lines: (§2)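 Each species was evaluated for growth suppression by eye, 0% matching untreated and 100% meaning death, some 20 to 23 days after a single post-emergence foliar treatment applied in 500 L/ha of water carrying 0.1% (v/v) agricultural spreader.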
As to `COCCOC(=O)Nc1c(OC)c(Cl)cc(F)c1-c1nn(C)c(OC(F)F)c1Cl` [Compound 1-61], the “growth controlling degree, GLXMA” value amounted to 80%.

In the next test the test system is redroot pigweed (Amaranthus retroflexus L.): AMARE. In words: Test Example 1 pre-emergence herbicidal activity, AMARE. Type of test: in vivo. To be noted: Rate 63 g a.i./ha, visually observed 20th to 23rd day after application. In outline:
as §1
Consider `COCCOC(=O)Nc1c(OC)c(Cl)cc(F)c1-c1nn(C)c(OC(F)F)c1Cl` [Compound 1-61], for which the “Pre-emergence Herbicidal Activity AMARE (growth controlling degree)” value came out at 100%.

For a further test, the system named is japanese ribbon wapato (Sagittaria pygmaea: SA GPY). In words: Test Example 3 water application herbicidal activity (paddy), SAGPY. Type of test: in vivo. To be noted: 63 g a.i./ha, water application under submerged condition, tubers planted, visually observed 14th day after application; 0 = untreated control, 100 = complete kill. In outline:
(§3)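 Compound, as diluted wettable powder or emulsifiable concentrate, was pipetted into flood water at a set active-ingredient dose. Weeds were treated at 0.5-leaf stage after sowing or tuber planting; 2-leaf rice 4 days post-transplant. Control scored visually, 0 untreated to 100 complete kill, weeds day 14, rice day 21.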
As for `COCCOC(=O)Nc1c(OC)c(Cl)cc(F)c1-c1nn(C)c(OC(F)F)c1Cl` [Compound 1-61], the “growth controlling degrees (%) SAGPY” value amounted to 100%.

The test system of a further test is velvetleaf (Abutilon theophrasti): ABUTH. In words: Test Example 1 pre-emergence herbicidal activity, ABUTH. To be noted: Rate 63 g a.i./ha, visually observed 20th to 23rd day after application. Type of test: in vivo. In outline:
as §1
Take `COCCOC(=O)Nc1c(OC)c(Cl)cc(F)c1-c1nn(C)c(OC(F)F)c1Cl` [Compound 1-61]: the “Pre-emergence Herbicidal Activity ABUTH (growth controlling degree)” value is 100%.

A further test relates to barnyardgrass (Echinochloa crus-galli L.): ECHCG. Kind of test: Test Example 1 pre-emergence herbicidal activity, ECHCG. Type of test: in vivo. To be noted: Rate 63 g a.i./ha, visually observed 20th to 23rd day after application. In a few lines: as §1
Regarding `COCCOC(=O)Nc1c(OC)c(Cl)cc(F)c1-c1nn(C)c(OC(F)F)c1Cl` [Compound 1-61], the “Pre-emergence Herbicidal Activity ECHCG (growth controlling degree)” value is on record as 100%.

In a further test the test system is green foxtail (Setaria viridis L.): SETVI. In words: Test Example 1 pre-emergence herbicidal activity, SETVI. Type of test: in vivo. To be noted: Rate 63 g a.i./ha, visually observed 20th to 23rd day after application. In a few lines:
as §1
As for `COCCOC(=O)Nc1c(OC)c(Cl)cc(F)c1-c1nn(C)c(OC(F)F)c1Cl` [Compound 1-61], the “Pre-emergence Herbicidal Activity SETVI (growth controlling degree)” value came to 100%.

In the next test the test system is corn (Zea mays L.), ZEAMX. Kind of test: Test Example 2 post-emergence (foliage treatment) herbicidal activity, ZEAMX. Type of test: in vivo. To be noted: 63 g a.i./ha. In a few lines: as §2
For the molecule `COCCOC(=O)Nc1c(OC)c(Cl)cc(F)c1-c1nn(C)c(OC(F)F)c1Cl` [Compound 1-61], the “growth controlling degree, ZEAMX” value was 80%.

The next test relates to prickly sida (Sida spinosa L.): SEDSP. In words: Test Example 1 pre-emergence herbicidal activity, SIDSP. Type of test: in vivo. To be noted: Rate 63 g a.i./ha, visually observed 20th to 23rd day after application. In a few lines: as §1
As to `COCCOC(=O)Nc1c(OC)c(Cl)cc(F)c1-c1nn(C)c(OC(F)F)c1Cl` [Compound 1-61], the “Pre-emergence Herbicidal Activity SIDSP (growth controlling degree)” value was found to be 100%.

Another test concerns green foxtail (Setaria viridis L.), SETVI. In words: Test Example 2 post-emergence (foliage treatment) herbicidal activity, SETVI. Type of test: in vivo. To be noted: 63 g a.i./ha. In a few lines: as §2
On to `COCCOC(=O)Nc1c(OC)c(Cl)cc(F)c1-c1nn(C)c(OC(F)F)c1Cl` [Compound 1-61], for which the “growth controlling degree, SETVI” value is given as 100%.

Another test has as its system prickly sida (Sida spinosa L.), SIDSP. Kind of test: Test Example 2 post-emergence (foliage treatment) herbicidal activity, SIDSP. Type of test: in vivo. To be noted: 63 g a.i./ha. In outline: as §2
Turning to `COCCOC(=O)Nc1c(OC)c(Cl)cc(F)c1-c1nn(C)c(OC(F)F)c1Cl` [Compound 1-61], the “growth controlling degree, SIDSP” value is 100%.

The test system of another test is wheat (Triticum aestivum L.): TRZAX. In words: Test Example 1 pre-emergence herbicidal activity, TRZAX. Type of test: in vivo. To be noted: Rate 63 g a.i./ha, visually observed 20th to 23rd day after application. In outline: as §1
On to `COCCOC(=O)Nc1c(OC)c(Cl)cc(F)c1-c1nn(C)c(OC(F)F)c1Cl` [Compound 1-61], for which the “Pre-emergence Herbicidal Activity TRZAX (growth controlling degree)” value is listed as 50%.

The next test deals with barnyardgrass (Echinochloa crus-galli L.), ECHCG. Kind of test: Test Example 2 post-emergence (foliage treatment) herbicidal activity, ECHCG. Type of test: in vivo. To be noted: 63 g a.i./ha. In a few lines:
(§4)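 Greenhouse pot test with upland field soil. Treatment: foliage spray, active ingredient at a predetermined amount, 500 L/ha, spreader 0.1% (v/v); leaf stage 0.1-1.5 (AMARE), 1.1-2.1 (ECHCG), 1.0-2.0 (DIGSA), 1.0-2 (ORYSA). Endpoint: visual % control, d20-23.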
`COCCOC(=O)Nc1c(OC)c(Cl)cc(F)c1-c1nn(C)c(OC(F)F)c1Cl` [Compound 1-61]: the “growth controlling degree, ECHCO” value is recorded as 100%.

In another test the test system is rice (Oryza sativa L.), ORYSA. Kind of test: Test Example 2 post-emergence (foliage treatment) herbicidal activity, ORYSA. Type of test: in vivo. To be noted: 63 g a.i./ha. In outline: as §4
For `COCCOC(=O)Nc1c(OC)c(Cl)cc(F)c1-c1nn(C)c(OC(F)F)c1Cl` [Compound 1-61], the “growth controlling degree, ORYSA” value stood at 80%.

A further test deals with velvetleaf (Abutilon theophrasti), ABUTH. Kind of test: Test Example 2 post-emergence (foliage treatment) herbicidal activity, ABUTH. Type of test: in vivo. To be noted: 63 g a.i./ha. In outline: as §2
For the molecule `COCCOC(=O)Nc1c(OC)c(Cl)cc(F)c1-c1nn(C)c(OC(F)F)c1Cl` [Compound 1-61], the “growth controlling degree, ABUTH” value is listed as 100%.

The test system of a further test is barnyardgrass (Echinochiloa oryzicola: ECHOR). In words: Test Example 3 water application herbicidal activity (paddy), ECHOR. Type of test: in vivo. To be noted: 63 g a.i./ha, water application under submerged condition at 0.5 leaf stage, visually observed 14th day after application; 0 = untreated control, 100 = complete kill. In a few lines:
as §3
Consider `COCCOC(=O)Nc1c(OC)c(Cl)cc(F)c1-c1nn(C)c(OC(F)F)c1Cl` [Compound 1-61], for which the “growth controlling degrees (%) ECHOR” value came out at 100%.

For the next test, the system named is crabgrass (Digitaria sanguinalis L.): DIGSA. In words: Test Example 1 pre-emergence herbicidal activity, DIGSA. Type of test: in vivo. To be noted: Rate 63 g a.i./ha, visually observed 20th to 23rd day after application. In outline:
as §1
`COCCOC(=O)Nc1c(OC)c(Cl)cc(F)c1-c1nn(C)c(OC(F)F)c1Cl` [Compound 1-61]: the “Pre-emergence Herbicidal Activity DIGSP (growth controlling degree)” value worked out at 100%.

For another test, the system named is japanese bulrush (Scirpus juncoides: SCPJO). Kind of test: Test Example 3 water application herbicidal activity (paddy), SCPJO. Type of test: in vivo. To be noted: 63 g a.i./ha, water application under submerged condition at 0.5 leaf stage, visually observed 14th day after application; 0 = untreated control, 100 = complete kill. In outline: as §3
In the case of `COCCOC(=O)Nc1c(OC)c(Cl)cc(F)c1-c1nn(C)c(OC(F)F)c1Cl` [Compound 1-61], the “growth controlling degrees (%) SCPJO” value was found to be 90%.

For the next test, the system named is soybean (Glycine max Merr.): GLXMA. In words: Test Example 1 pre-emergence herbicidal activity, GLXMA. Type of test: in vivo. To be noted: Rate 63 g a.i./ha, visually observed 20th to 23rd day after application. In outline:
as §1
For `COCCOC(=O)Nc1c(OC)c(Cl)cc(F)c1-c1nn(C)c(OC(F)F)c1Cl` [Compound 1-61], the “Pre-emergence Herbicidal Activity GLXMA (growth controlling degree)” value amounted to 10%.

The subject of the next test is redroot pigweed (Amaranthus retroflexus L.), AMARE. In words: Test Example 2 post-emergence (foliage treatment) herbicidal activity, AMARE. Type of test: in vivo. To be noted: 63 g a.i./ha. In a few lines:
as §4
On to `COCCOC(=O)Nc1c(OC)c(Cl)cc(F)c1-c1nn(C)c(OC(F)F)c1Cl` [Compound 1-61], for which the “growth controlling degree, AMARE” value came to 100%.

In a further test the test system is wheat (Triticum aestivum L.), TRZAX. Kind of test: Test Example 2 post-emergence (foliage treatment) herbicidal activity, TRZAX. Type of test: in vivo. To be noted: 63 g a.i./ha. In a few lines:
as §2
Regarding `COCCOC(=O)Nc1c(OC)c(Cl)cc(F)c1-c1nn(C)c(OC(F)F)c1Cl` [Compound 1-61], the “growth controlling degree, TRZAX” value is reported as 60%.

The next test deals with rice (Oryza sativa L.): ORYSA. In words: Test Example 1 pre-emergence herbicidal activity, ORYSA. Type of test: in vivo. To be noted: Rate 63 g a.i./ha, visually observed 20th to 23rd day after application. In a few lines:
as §1
Take `COCCOC(=O)Nc1c(OC)c(Cl)cc(F)c1-c1nn(C)c(OC(F)F)c1Cl` [Compound 1-61]: the “Pre-emergence Herbicidal Activity ORYSA (growth controlling degree)” value was found to be 70%.

A further test deals with rice (Oryza sativa L.: ORYSA). In words: Test Example 3 water application herbicidal activity (paddy), transplanted rice ORYSA. Type of test: in vivo. To be noted: 63 g a.i./ha, water application 4th day after transplantation of 2 leaf stage rice, visually observed 21st day after application; 0 = untreated control, 100 = complete kill. In outline: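 Submerged application in flooded paddy soil (3–4 cm water); weeds treated at 0.5-leaf stage, transplanted rice 4 d after transplanting. Scored visually as % growth control: weeds at 14 d, rice at 21 d.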
For `COCCOC(=O)Nc1c(OC)c(Cl)cc(F)c1-c1nn(C)c(OC(F)F)c1Cl` [Compound 1-61], the “growth controlling degrees (%) ORYSA” value is given as 95%.

Another test deals with crabgrass (Digitaria sanguinalis L.), DIGSA. In words: Test Example 2 post-emergence (foliage treatment) herbicidal activity, DIGSA. Type of test: in vivo. To be noted: 63 g a.i./ha. In outline: as §4
For the molecule `COCCOC(=O)Nc1c(OC)c(Cl)cc(F)c1-c1nn(C)c(OC(F)F)c1Cl` [Compound 1-61], the “growth controlling degree, DIGSP” value was 100%.
